# Results as given in patent US10869900B2, “Composition and products comprising senescent cells for use in tissue regeneration” (QRSkin GmbH, priority 2015, dated 2020).
# System: Human primary keratinocyte BKB10002 cells
# Experiment: Senescence induction by surfactant, β-Gal staining
# Type: cell-based
# Settings: 2 uM NP40 for 14 days, EpiLife medium+S7 supplement, medium change every second day
# Description: Human primary keratinocyte BKB10002 cells were treated with the surfactant NP40 in order to induce senescence. Cells were grown in EpiLife medium+S7 supplement without (control) or with 2 uM NP40 for 14 days with a medium change every second day. […] Protein concentrations in the supernatants of the cell cultures were quantified using the Bio-Plex® Multiplex Immunoassays or ELISA kits from BIO-RAD.
substance,measurement,value
NP40,cells showing a positive β-Gal staining,11%
